Assay results published in patent US20260022142A1, “MACROCYCLIC IMMUNOMODULATORS” (Bristol-Myers Squibb Company, priority 2022, published 2026).
Bridge positions count the residues as written; N and C are the ends. Square brackets hold non-standard residues; d marks the D form. Peptide text beside a SMILES is read from it. * marks the point of attachment. Phe(4-COOH) = N[C@@H](Cc1ccc(C(=O)O)cc1)C(=O)O; Bip = N[C@@H](Cc1ccc(-c2ccccc2)cc1)C(=O)O; NH(CH2)14COOH = O=C(O)CCCCCCCCCCCCCCN*; Phe(3-Me) = Cc1cccc(C[C@H](N)C(=O)O)c1; NH(CH2)12COOH = O=C(O)CCCCCCCCCCCCN*; Val(3-OH) = CC(C)(O)[C@H](N)C(=O)O; 4Pal = N[C@@H](Cc1ccncc1)C(=O)O; Cha = N[C@@H](CC1CCCCC1)C(=O)O; Carboxymethyl = O=C(O)C*; Nle = CCCC[C@H](N)C(=O)O; Orn = NCCC[C@H](N)C(=O)O; Dab = NCC[C@H](N)C(=O)O; AEEA = NCCOCCOCC(=O)O

Target: T1, PD-1/PD-L1 interaction (PE-labeled human PD-L1-Ig binding to Jurkat cell line over-expressing human PD-1) (Homo sapiens, UniProt Q15116)
T1 construct: expressed in transfected cells; host or cells: Jurkat
T1 sequence (Q15116 25-288): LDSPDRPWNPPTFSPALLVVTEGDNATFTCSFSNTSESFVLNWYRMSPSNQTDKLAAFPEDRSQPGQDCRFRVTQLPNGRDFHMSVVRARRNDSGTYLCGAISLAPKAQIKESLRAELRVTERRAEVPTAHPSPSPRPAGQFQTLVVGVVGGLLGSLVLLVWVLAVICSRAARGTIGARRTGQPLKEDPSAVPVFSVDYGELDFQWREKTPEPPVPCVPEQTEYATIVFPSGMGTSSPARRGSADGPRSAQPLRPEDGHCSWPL
Assay: Jurkat-PD-1 Cell Binding High-Content Screening Assay (CBA)
Format: cell-based
Settings: Jurkat cell line over-expressing human PD-1; PE-labeled PD-L1-Ig 20 nM final; read-out: Jurkat hPD1-PDL1 IC50
In short: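 Binding of fluorescent PD-L1-Ig (20 nM final) to Jurkat-PD-1 cells was measured by automated imaging after 1 h, following a 2 h compound pre-treatment at 37° C.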

IC50 | SMILES
2690 nM | COc1ccc(C[C@@H]2NC(=O)[C@H](Cc3cccc(C)c3)NC(=O)[C@H](CC(=O)O)NC(=O)[C@H](Cc3ccc(C(=O)O)cc3)NC(=O)[C@H](Cc3ccncc3)NC(=O)CSC[C@@H](C(=O)N[C@@H](CCN)C(=O)NCCOCCOCC(=O)NCCOCCOCC(=O)NCCCCCCCCCCCCCCC(=O)O)NC(=O)[C@H](CO)NC(=O)[C@H](C(C)(C)O)NC(=O)[C@H](CC3CCCCC3)NC(=O)[C@H](CCN)NC(=O)[C@@H](CC(C)C)NC(=O)[C@H](CCCN)NC(=O)[C@H](Cc3ccc(C(=O)O)cc3)NC(=O)[C@H](Cc3ccc(-c4ccccc4)cc3)NC2=O)cc1 [Compound 2885] ({CH2CO}-[4Pal][Phe(4-COOH)]D[Phe(3-Me)]Y(Me)[Bip][Phe(4-COOH)][Orn][dL][Dab][Cha][Val(3-OH)]SC[Dab][AEEA][AEEA]-{NH(CH2)14COOH}; thioether N-14)
10 nM | Cc1cccc(C[C@@H]2NC(=O)[C@H](CC(=O)O)NC(=O)[C@H](Cc3ccc(C(=O)O)cc3)NC(=O)[C@H](CCN)NC(=O)CSC[C@@H](C(=O)N[C@@H](CCN)C(=O)NCCOCCOCC(=O)NCCOCCOCC(=O)NCCCCCCCCCCCCC(=O)O)NC(=O)[C@H](Cc3c[nH]cn3)NC(=O)[C@H](C(C)(C)O)NC(=O)[C@H](CC3CCCCC3)NC(=O)[C@H](CCN)NC(=O)[C@@H](CC(C)C)NC(=O)[C@H](CCCN)NC(=O)[C@H](Cc3ccc(C(=O)O)cc3)NC(=O)[C@H](Cc3ccc(-c4ccccc4)cc3)NC(=O)[C@H](Cc3ccc(C(=O)O)cc3)NC2=O)c1 [Compound 2886] ({CH2CO}-[Dab][Phe(4-COOH)]D[Phe(3-Me)][Phe(4-COOH)][Bip][Phe(4-COOH)][Orn][dL][Dab][Cha][Val(3-OH)]HC[Dab][AEEA][AEEA]-{NH(CH2)12COOH}; thioether N-14)
18.4 nM | Cc1cccc(C[C@@H]2NC(=O)[C@H](CC(=O)O)NC(=O)[C@H](Cc3ccc(OCC(=O)O)cc3)NC(=O)[C@H](CCN)NC(=O)CSC[C@@H](C(=O)N[C@@H](CCN)C(=O)NCCOCCOCC(=O)NCCOCCOCC(=O)NCCCCCCCCCCCCC(=O)O)NC(=O)[C@H](CO)NC(=O)[C@H](C(C)(C)O)NC(=O)[C@H](CC3CCCCC3)NC(=O)[C@H](Cc3c[nH]cn3)NC(=O)[C@@H](CC(C)C)NC(=O)[C@H](CCCN)NC(=O)[C@H](Cc3ccc(C(=O)O)cc3)NC(=O)[C@H](Cc3ccc(-c4ccccc4)cc3)NC(=O)[C@H](Cc3ccc(C(=O)O)cc3)NC2=O)c1 [Compound 2887] ({CH2CO}-[Dab]Y(Carboxymethyl)D[Phe(3-Me)][Phe(4-COOH)][Bip][Phe(4-COOH)][Orn][dL]H[Cha][Val(3-OH)]SC[Dab][AEEA][AEEA]-{NH(CH2)12COOH}; thioether N-14)
38.2 nM | Cc1cccc(C[C@@H]2NC(=O)[C@H](CC(=O)O)NC(=O)[C@H](Cc3ccc(OCC(=O)O)cc3)NC(=O)[C@H](CCN)NC(=O)CSC[C@@H](C(=O)N[C@@H](CCN)C(=O)NCCOCCOCC(=O)NCCOCCOCC(=O)NCCCCCCCCCCCCC(=O)O)NC(=O)[C@H](CCC(=O)O)NC(=O)[C@H](C(C)(C)O)NC(=O)[C@H](CC3CCCCC3)NC(=O)[C@H](Cc3c[nH]cn3)NC(=O)[C@@H](CC(C)C)NC(=O)[C@H](CCCN)NC(=O)[C@H](Cc3ccc(C(=O)O)cc3)NC(=O)[C@H](Cc3ccc(-c4ccccc4)cc3)NC(=O)[C@H](Cc3ccc(C(=O)O)cc3)NC2=O)c1 [Compound 2888] ({CH2CO}-[Dab]Y(Carboxymethyl)D[Phe(3-Me)][Phe(4-COOH)][Bip][Phe(4-COOH)][Orn][dL]H[Cha][Val(3-OH)]EC[Dab][AEEA][AEEA]-{NH(CH2)12COOH}; thioether N-14)
52.4 nM | Cc1cccc(C[C@@H]2NC(=O)[C@H](CC(=O)O)NC(=O)[C@H](Cc3ccc(OCC(=O)O)cc3)NC(=O)[C@H](CCN)NC(=O)CSC[C@@H](C(=O)N[C@@H](CCN)C(=O)NCCOCCOCC(=O)NCCOCCOCC(=O)NCCCCCCCCCCCCC(=O)O)NC(=O)[C@H](CC(=O)O)NC(=O)[C@H](C(C)(C)O)NC(=O)[C@H](CC3CCCCC3)NC(=O)[C@H](Cc3c[nH]cn3)NC(=O)[C@@H](CC(C)C)NC(=O)[C@H](CCCN)NC(=O)[C@H](Cc3ccc(C(=O)O)cc3)NC(=O)[C@H](Cc3ccc(-c4ccccc4)cc3)NC(=O)[C@H](Cc3ccc(C(=O)O)cc3)NC2=O)c1 [Compound 2889] ({CH2CO}-[Dab]Y(Carboxymethyl)D[Phe(3-Me)][Phe(4-COOH)][Bip][Phe(4-COOH)][Orn][dL]H[Cha][Val(3-OH)]DC[Dab][AEEA][AEEA]-{NH(CH2)12COOH}; thioether N-14)
31.1 nM | Cc1cccc(C[C@@H]2NC(=O)[C@H](CC(=O)O)NC(=O)[C@H](Cc3ccc(C(=O)O)cc3)NC(=O)[C@H](CCN)NC(=O)CSC[C@@H](C(=O)N[C@@H](CCN)C(=O)NCCOCCOCC(=O)NCCOCCOCC(=O)NCCCCCCCCCCCCC(=O)O)NC(=O)[C@H](CO)NC(=O)[C@H](C(C)(C)O)NC(=O)[C@H](CC3CCCCC3)NC(=O)[C@H](Cc3c[nH]cn3)NC(=O)[C@@H](CC(C)C)NC(=O)[C@H](CCCN)NC(=O)[C@H](Cc3ccc(C(=O)O)cc3)NC(=O)[C@H](Cc3ccc(-c4ccccc4)cc3)NC(=O)[C@H](Cc3ccc(C(=O)O)cc3)NC2=O)c1 [Compound 2890] ({CH2CO}-[Dab][Phe(4-COOH)]D[Phe(3-Me)][Phe(4-COOH)][Bip][Phe(4-COOH)][Orn][dL]H[Cha][Val(3-OH)]SC[Dab][AEEA][AEEA]-{NH(CH2)12COOH}; thioether N-14)
2.6 nM | CCCC[C@@H]1NC(=O)CSC[C@@H](C(=O)N[C@@H](CCN)C(=O)NCCOCCOCC(=O)NCCOCCOCC(=O)NCCCCCCCCCCCCC(=O)O)NC(=O)[C@H](CO)NC(=O)[C@H](C(C)(C)O)NC(=O)[C@H](CC2CCCCC2)NC(=O)[C@H](CCN)NC(=O)[C@@H](CC(C)C)NC(=O)[C@H](CCCN)NC(=O)[C@H](Cc2ccc(C(=O)O)cc2)NC(=O)[C@H](Cc2ccc(-c3ccccc3)cc2)NC(=O)[C@H](Cc2ccc(C(=O)O)cc2)NC(=O)[C@H](Cc2cccc(C)c2)NC(=O)[C@H](CC(=O)O)NC(=O)[C@H](Cc2ccc(OCC(=O)O)cc2)NC1=O [Compound 2891] ({CH2CO}-[Nle]Y(Carboxymethyl)D[Phe(3-Me)][Phe(4-COOH)][Bip][Phe(4-COOH)][Orn][dL][Dab][Cha][Val(3-OH)]SC[Dab][AEEA][AEEA]-{NH(CH2)12COOH}; thioether N-14)
26.2 nM | CCCC[C@@H]1NC(=O)CSC[C@@H](C(=O)N[C@@H](CCN)C(=O)NCCOCCOCC(=O)NCCOCCOCC(=O)NCCCCCCCCCCCCC(=O)O)NC(=O)[C@H](CCC(=O)O)NC(=O)[C@H](C(C)(C)O)NC(=O)[C@H](CC2CCCCC2)NC(=O)[C@H](CCN)NC(=O)[C@@H](CC(C)C)NC(=O)[C@H](CCCN)NC(=O)[C@H](Cc2ccc(C(=O)O)cc2)NC(=O)[C@H](Cc2ccc(-c3ccccc3)cc2)NC(=O)[C@H](Cc2ccc(C(=O)O)cc2)NC(=O)[C@H](Cc2cccc(C)c2)NC(=O)[C@H](CC(=O)O)NC(=O)[C@H](Cc2ccc(OCC(=O)O)cc2)NC1=O [Compound 2892] ({CH2CO}-[Nle]Y(Carboxymethyl)D[Phe(3-Me)][Phe(4-COOH)][Bip][Phe(4-COOH)][Orn][dL][Dab][Cha][Val(3-OH)]EC[Dab][AEEA][AEEA]-{NH(CH2)12COOH}; thioether N-14)
19.5 nM | CCCC[C@@H]1NC(=O)CSC[C@@H](C(=O)N[C@@H](CCN)C(=O)NCCOCCOCC(=O)NCCOCCOCC(=O)NCCCCCCCCCCCCC(=O)O)NC(=O)[C@H](CC(=O)O)NC(=O)[C@H](C(C)(C)O)NC(=O)[C@H](CC2CCCCC2)NC(=O)[C@H](CCN)NC(=O)[C@@H](CC(C)C)NC(=O)[C@H](CCCN)NC(=O)[C@H](Cc2ccc(C(=O)O)cc2)NC(=O)[C@H](Cc2ccc(-c3ccccc3)cc2)NC(=O)[C@H](Cc2ccc(C(=O)O)cc2)NC(=O)[C@H](Cc2cccc(C)c2)NC(=O)[C@H](CC(=O)O)NC(=O)[C@H](Cc2ccc(OCC(=O)O)cc2)NC1=O [Compound 2893] ({CH2CO}-[Nle]Y(Carboxymethyl)D[Phe(3-Me)][Phe(4-COOH)][Bip][Phe(4-COOH)][Orn][dL][Dab][Cha][Val(3-OH)]DC[Dab][AEEA][AEEA]-{NH(CH2)12COOH}; thioether N-14)
259 nM | COc1ccc(C[C@@H]2NC(=O)[C@H](Cc3cccc(C)c3)NC(=O)[C@H](CC(=O)O)NC(=O)[C@H](Cc3ccc(OCC(=O)O)cc3)NC(=O)[C@H](Cc3ccncc3)NC(=O)CSC[C@@H](C(=O)N[C@@H](CCN)C(=O)NCCOCCOCC(=O)NCCOCCOCC(=O)NCCCCCCCCCCCCC(=O)O)NC(=O)[C@H](CO)NC(=O)[C@H](C(C)(C)O)NC(=O)[C@H](CC3CCCCC3)NC(=O)[C@H](CCN)NC(=O)[C@@H](CC(C)C)NC(=O)[C@H](CCCN)NC(=O)[C@H](Cc3ccc(OCC(=O)O)cc3)NC(=O)[C@H](Cc3ccc(-c4ccccc4)cc3)NC2=O)cc1 [Compound 2894] ({CH2CO}-[4Pal]Y(Carboxymethyl)D[Phe(3-Me)]Y(Me)[Bip]Y(Carboxymethyl)[Orn][dL][Dab][Cha][Val(3-OH)]SC[Dab][AEEA][AEEA]-{NH(CH2)12COOH}; thioether N-14)
11.4 nM | Cc1cccc(C[C@@H]2NC(=O)[C@H](CC(=O)O)NC(=O)[C@H](Cc3ccc(OCC(=O)O)cc3)NC(=O)[C@H](Cc3c[nH]cn3)NC(=O)CSC[C@@H](C(=O)N[C@@H](CCN)C(=O)NCCOCCOCC(=O)NCCOCCOCC(=O)NCCCCCCCCCCCCC(=O)O)NC(=O)[C@H](CO)NC(=O)[C@H](C(C)(C)O)NC(=O)[C@H](CC3CCCCC3)NC(=O)[C@H](CCN)NC(=O)[C@@H](CC(C)C)NC(=O)[C@H](CCCN)NC(=O)[C@H](Cc3ccc(C(=O)O)cc3)NC(=O)[C@H](Cc3ccc(-c4ccccc4)cc3)NC(=O)[C@H](Cc3ccc(C(=O)O)cc3)NC2=O)c1 [Compound 2895] ({CH2CO}-HY(Carboxymethyl)D[Phe(3-Me)][Phe(4-COOH)][Bip][Phe(4-COOH)][Orn][dL][Dab][Cha][Val(3-OH)]SC[Dab][AEEA][AEEA]-{NH(CH2)12COOH}; thioether N-14)
